Source: article PMC8928484 (Journal of the American Chemical Society, 2022)
Read-outs that look alike come from different tables or passages of the source.

Legend:
FEM1B [1] = target: T1, FEM1B (Mus musculus, UniProt Q9Z2G0); assay: competitive fluorescence polarization with TAMRA-FNIP1 degron; type: binding
FEM1B [2] = target: T1, FEM1B; assay: as above; type: binding; remark: listed apart in the source

T1 sequence (Q9Z2G0 whole entry): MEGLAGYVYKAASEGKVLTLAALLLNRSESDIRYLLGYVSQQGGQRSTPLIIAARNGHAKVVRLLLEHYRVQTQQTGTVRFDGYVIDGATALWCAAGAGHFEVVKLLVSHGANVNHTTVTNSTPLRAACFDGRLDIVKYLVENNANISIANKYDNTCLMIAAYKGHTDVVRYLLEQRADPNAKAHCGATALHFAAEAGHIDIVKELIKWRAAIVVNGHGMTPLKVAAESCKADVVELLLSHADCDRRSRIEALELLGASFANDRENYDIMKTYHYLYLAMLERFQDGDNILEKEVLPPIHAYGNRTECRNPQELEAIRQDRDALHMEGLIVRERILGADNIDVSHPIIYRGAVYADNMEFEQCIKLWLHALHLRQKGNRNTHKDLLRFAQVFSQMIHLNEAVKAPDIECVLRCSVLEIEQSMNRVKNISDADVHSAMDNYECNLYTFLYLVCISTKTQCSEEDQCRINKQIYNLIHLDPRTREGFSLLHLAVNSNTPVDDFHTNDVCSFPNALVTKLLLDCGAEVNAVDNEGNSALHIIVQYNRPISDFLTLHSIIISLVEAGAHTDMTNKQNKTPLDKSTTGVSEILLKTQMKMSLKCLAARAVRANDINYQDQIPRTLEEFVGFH

Row | IC50 (FEM1B [1]) [nM] | IC50 (FEM1B [2]) [nM] | Compound
1 | 1500 |  | NJH-1-106
2 |  | 670 | C#CCCCC(=O)N1CCOc2cc(N(CCC#N)C(=O)CCl)ccc21 [NJH-2-030]
